# Measured values taken from patent US8449898B2 (priority 2007, dated 2013).
# Where two headings read alike, the source gives them in different places.
# Experiments:
# [1] = tested on: Phytophthora infestans (the causal agent of tomato late blight); test: whole plant or invertebrate; assay type: in vivo; details: Phytophthora infestans
# [2] = tested on: Pseudoperonospora cubensis (the causal agent of cucumber downy mildew); test: Test B: cucumber downy mildew, preventive spray on cucumber seedlings; assay type: in vivo; details: Pseudoperonospora cubensis
smiles,measurement,setting,value
CC(C)CC(C)c1sccc1NC(=O)c1cn(C)nc1C(F)(F)F (centres unmarked) [penthiopyrad],pest or weed control at 0.4 ppm,"[1]; read-out: TLB Obsd (disease control rating), Table A, component (b) alone 0.4 ppm",0%
same,pest or weed control at 2 ppm,"[1]; read-out: TLB Obsd (disease control rating), Table A, component (b) alone 2 ppm",0%
same,pest or weed control at 10 ppm,"[1]; read-out: TLB Obsd (disease control rating), Table A, component (b) alone 10 ppm",9%
same,pest or weed control at 40 ppm,"[1]; read-out: TLB Obsd (disease control rating), Table A, component (b) alone 40 ppm",17%
same,pest or weed control at 200 ppm,"[1]; read-out: TLB Obsd (disease control rating), Table A, component (b) alone 200 ppm",17%
same,pest or weed control at 0.4 ppm,"[1]; read-out: TLB Obsd, component (b) alone, 0.4 ppm",0%
same,pest or weed control at 2 ppm,"[1]; read-out: TLB Obsd, component (b) alone, 2 ppm",22%
same,pest or weed control at 10 ppm,"[1]; read-out: TLB Obsd, component (b) alone, 10 ppm",7%
same,pest or weed control at 40 ppm,"[1]; read-out: TLB Obsd, component (b) alone, 40 ppm",15%
same,pest or weed control at 200 ppm,"[1]; read-out: TLB Obsd, component (b) alone, 200 ppm",7%
same,pest or weed control at 0.4 ppm,"[2]; Table A, component (b) alone 0.4 ppm, read-out: CDM Obsd (disease control rating)",47%
same,pest or weed control at 2 ppm,"[2]; Table A, component (b) alone 2 ppm, read-out: CDM Obsd (disease control rating)",47%
same,pest or weed control at 10 ppm,"[2]; Table A, component (b) alone 10 ppm, read-out: CDM Obsd (disease control rating)",47%
same,pest or weed control at 40 ppm,"[2]; Table A, component (b) alone 40 ppm, read-out: CDM Obsd (disease control rating)",47%
same,pest or weed control at 200 ppm,"[2]; Table A, component (b) alone 200 ppm, read-out: CDM Obsd (disease control rating)",47%
same,pest or weed control at 0.4 ppm,"[2]; Table G, component (b) alone at 0.4 ppm, read-out: CDM Obsd",43%
same,pest or weed control at 2 ppm,"[2]; Table G, component (b) alone at 2 ppm, read-out: CDM Obsd",33%
same,pest or weed control at 10 ppm,"[2]; Table G, component (b) alone at 10 ppm, read-out: CDM Obsd",26%
same,pest or weed control at 40 ppm,"[2]; Table G, component (b) alone at 40 ppm, read-out: CDM Obsd",26%
same,pest or weed control at 200 ppm,"[2]; Table G, component (b) alone at 200 ppm, read-out: CDM Obsd",47%
same,pest or weed control at 0.4 ppm,"[2]; component (b) alone, 0.4 ppm, read-out: CDM Obsd",0%
same,pest or weed control at 2 ppm,"[2]; component (b) alone, 2 ppm, read-out: CDM Obsd",0%
same,pest or weed control at 10 ppm,"[2]; component (b) alone, 10 ppm, read-out: CDM Obsd",0%
same,pest or weed control at 40 ppm,"[2]; component (b) alone, 40 ppm, read-out: CDM Obsd",0%
same,pest or weed control at 200 ppm,"[2]; component (b) alone, 200 ppm, read-out: CDM Obsd",16%
CCCOC(=O)NCCCN(C)C [propamocarb],pest or weed control at 10 ppm,"[1]; read-out: TLB Obsd (observed effect, tomato late blight), component (b) alone, 10 ppm",0%
same,pest or weed control at 40 ppm,"[1]; read-out: TLB Obsd (observed effect, tomato late blight), component (b) alone, 40 ppm",0%
same,pest or weed control at 200 ppm,"[1]; read-out: TLB Obsd (observed effect, tomato late blight), component (b) alone, 200 ppm",0%
same,pest or weed control at 1000 ppm,"[1]; read-out: TLB Obsd (observed effect, tomato late blight), component (b) alone, 1000 ppm",38%
same,pest or weed control at 5000 ppm,"[1]; read-out: TLB Obsd (observed effect, tomato late blight), component (b) alone, 5000 ppm",92%
same,pest or weed control at 10 ppm,"[1]; read-out: TLB Obsd, Table D, component (b) alone at 10 ppm",6%
same,pest or weed control at 40 ppm,"[1]; read-out: TLB Obsd, Table D, component (b) alone at 40 ppm",6%
same,pest or weed control at 200 ppm,"[1]; read-out: TLB Obsd, Table D, component (b) alone at 200 ppm",19%
same,pest or weed control at 1000 ppm,"[1]; read-out: TLB Obsd, Table D, component (b) alone at 1000 ppm",57%
same,pest or weed control at 5000 ppm,"[1]; read-out: TLB Obsd, Table D, component (b) alone at 5000 ppm",77%
same,pest or weed control at 10 ppm,"[2]; Table D, component (b) alone at 10 ppm, read-out: CDM Obsd",47%
same,pest or weed control at 40 ppm,"[2]; Table D, component (b) alone at 40 ppm, read-out: CDM Obsd",47%
same,pest or weed control at 200 ppm,"[2]; Table D, component (b) alone at 200 ppm, read-out: CDM Obsd",58%
same,pest or weed control at 1000 ppm,"[2]; Table D, component (b) alone at 1000 ppm, read-out: CDM Obsd",76%
same,pest or weed control at 5000 ppm,"[2]; Table D, component (b) alone at 5000 ppm, read-out: CDM Obsd",98%
same,pest or weed control at 10 µg/mL,"[2]; component (b) alone 10 ppm (Compound 1 0 ppm), read-out: CDM Obsd",47%
same,pest or weed control at 40 µg/mL,"[2]; component (b) alone 40 ppm (Compound 1 0 ppm), read-out: CDM Obsd",47%
same,pest or weed control at 200 µg/mL,"[2]; component (b) alone 200 ppm (Compound 1 0 ppm), read-out: CDM Obsd",94%
same,pest or weed control at 1000 µg/mL,"[2]; component (b) alone 1000 ppm (Compound 1 0 ppm), read-out: CDM Obsd",100%
same,pest or weed control at 5000 µg/mL,"[2]; component (b) alone 5000 ppm (Compound 1 0 ppm), read-out: CDM Obsd",100%
same,pest or weed control at 10 ppm,"[2]; component (b) alone, 10 ppm, read-out: CDM Obsd (observed effect, cucumber downy mildew)",46%
same,pest or weed control at 40 ppm,"[2]; component (b) alone, 40 ppm, read-out: CDM Obsd (observed effect, cucumber downy mildew)",31%
same,pest or weed control at 200 ppm,"[2]; component (b) alone, 200 ppm, read-out: CDM Obsd (observed effect, cucumber downy mildew)",86%
same,pest or weed control at 1000 ppm,"[2]; component (b) alone, 1000 ppm, read-out: CDM Obsd (observed effect, cucumber downy mildew)",99%
same,pest or weed control at 5000 ppm,"[2]; component (b) alone, 5000 ppm, read-out: CDM Obsd (observed effect, cucumber downy mildew)",100%
